Assays:
Format in all cases: cell-based
MLE-12 cells [1] = test: Cytosolic ROS (CM-H2DCFDA) after RSL3; settings: MLE-12, 1 μM RSL3, 2 hours
Experimental: To confirm the protective effect against cytosolic reactive oxygen species in lung epithelial cells, 2×10^5 MLE-12 cells were dispensed into each well of a 12-well plate and cultured for 18 to 24 hours. Each well was treated with Example Compound 1 and ferrostatin-1, which were diluted so that their final concentration became 0.01, 0.1, 1, and 10 μM, and culture was performed for 15 minutes. Afterwards, the cells were treated so that the final concentration of RSL3 became 1 μM, and cultured for 2 hours. To confirm the inhibitory effect against cytosolic reactive oxygen species, CM-H2DCFDA (general oxidative stress indicator) [Invitrogen™; C6827] was used. According to the manufacturer's experimental method, CM-H2DCFDA was diluted in the cell culture medium so that the final concentration became 5 μM, and the cells were treated therewith and allowed to react for 30 minutes to perform fluorescent staining. The MLE-12 cells fluorescently stained with CM-H2DCFDA were detached from the 12-well plate using 0.25% Trypsin-EDTA and transferred to a microtube, and the fluorescence (excitation/absorption 492 to 495 nm/517 to 527 nm) was measured using BD FACSLyric™ to calculate the rate of change compared to the control group.

MLE-12 = test: Cell death protection, LDH release after RSL3; settings: 24 hours
Experimental: (§1) To confirm the protective effect on cardiac cells, adrenal medulla cells, renal fibroblasts, retinal epithelial cells, lung epithelial cells, renal proximal tubule epithelial cells, hippocampal neurons, and fibroblasts, 4×10^3 to 1.2×10^4 cells of each cell type were dispensed into 96-well plates and cultured for 18 to 24 hours. Each well was treated with the example compound, which was diluted so that the final concentration became 0.001, 0.003, 0.01, 0.03, 0.1, 0.3, 1, 3, and 10 μM, and culture was performed for 15 to 20 minutes. […] To confirm the cell protecting effect of the example compounds, a cytotoxicity LDH assay kit [Dojindo; CK12] was used to measure the level of extracellular secretion of lactate dehydrogenase (LDH). Briefly, at the time point when the 24-hour treatment of each cell type with RSL3 ended, 70 μL of each supernatant from cell culture medium was taken and transferred to a new 96-well plate. After adding 70 μL/well (the same amount as the sample) of the assay buffer included in the kit, the resulting mixture was wrapped with foil and allowed to react at room temperature for 15 to 20 minutes. After observing the color change of the sample, 35 μL/well of a stop solution was added, and the absorbance value at 490 nm was measured using an iD3 spectrophotometer to calculate the EC50 value.
(§2) Table 3. Effect of protecting cardiac cells, adrenal medulla cells, renal fibroblasts, retinal epithelial cells, lung epithelial cells, renal proximal tubule epithelial cells, hippocampal neurons, and fibroblasts against cell death induced by RSL3.

PC-12 = test: Cell death protection, LDH release after RSL3; settings: PC-12, RSL3 0.3 μM, 24 hours
Experimental: as §1, §2

NIH/3T3 = test: Cell death protection, LDH release after RSL3; settings: 24 hours
Experimental: as §1, §2

NRK-49F = test: Cell death protection, LDH release after RSL3; settings: RSL3 3 μM, 24 hours
Experimental: as §1, §2

ARPE-19 = test: Cell death protection, LDH release after RSL3; settings: ARPE-19, RSL3 0.3 μM, 24 hours
Experimental: as §1, §2

H9C2 = test: Cell death protection, LDH release after RSL3; settings: H9C2, RSL3 0.5 μM, 24 hours
Experimental: as §1, §2

HK-2 = test: Cell death protection, LDH release after RSL3; settings: HK-2, RSL3 0.3 μM, 24 hours
Experimental: as §1, §2

HT-22 = test: Cell death protection, LDH release after RSL3; settings: HT-22, RSL3 0.3 μM, 24 hours
Experimental: as §1, §2

H9C2 cells = test: Cell death protection by real-time imaging after erastin; settings: H9C2, erastin 1 μM, compound 0.1 μM, imaged every 3 hours for 24 hours
Experimental: To confirm a cell death protection effect on cardiac cells through images, 2.5×10^5 H9C2 cells were dispensed into each confocal dish and cultured for 2 days. Each dish was treated with Example Compound 1 and ferrostatin-1, which were diluted to a final concentration of 0.1 μM, and culture was performed for 20 minutes. Afterwards, the cells were treated with erastin so that the final concentration became 1 μM, and images were taken using real-time imaging equipment [Nanolive; CX-A] every 3 hours for 24 hours to confirm changes in the H9C2 cells.

MLE-12 cells [2] = test: Cytosolic lipid ROS (BODIPY 581/591 C11) after RSL3, Experimental Example 3-1; settings: MLE-12, 1 μM RSL3, 2 hours; tested 0.01-10 μM
Experimental: Experimental Example 3-1: To confirm the protective effect against cytosolic lipid reactive oxygen species in lung epithelial cells, 2×10^5 MLE-12 cells were dispensed into each well of a 12-well plate and cultured for 18 to 24 hours. Each well was treated with Example Compound 1 and ferrostatin-1, which were diluted so that their final concentration became 0.01, 0.1, 1, and 10 μM, and culture was performed for 15 minutes. Afterwards, the cells were treated so that the final concentration of RSL3 became 1 μM, and cultured for 2 hours. To confirm the inhibitory effect against cytosolic lipid reactive oxygen species, BODIPY™ 581/591 C11 (lipid peroxidation sensor) [Invitrogen™; D3861] was used. According to the manufacturer's experimental method, BODIPY™ 581/591 C11 was diluted in the cell culture medium so that the final concentration became 5 μM, and the cells were treated therewith and allowed to react for 30 minutes to perform fluorescent staining. The MLE-12 cells fluorescently stained with BODIPY™ 581/591 C11 were detached from the 12-well plate using 0.25% Trypsin-EDTA and transferred to a microtube, and the fluorescence (excitation/absorption 500 to 650 nm/510 to 665 nm) was measured using BD FACSLyric™ to calculate the rate of change compared to the control group.

Row | Structure (SMILES) | concentration at which cytosolic reactive oxygen species were significantly decreased (MLE-12 cells [1]) [µM] | EC50 (MLE-12; MLE-12, RSL3 1 μM) [µM] | EC50 (PC-12) [µM] | EC50 (NIH/3T3; NIH/3T3, RSL3 3 μM) [µM] | EC50 (NRK-49F) [µM] | EC50 (ARPE-19) [µM] | EC50 (H9C2) [µM] | EC50 (HK-2) [µM] | EC50 (HT-22) [µM] | time for which cell death was inhibited (H9C2 cells) | time from which cell death was observed (H9C2 cells) [h] | concentration at which cytosolic lipid reactive oxygen species were significantly decreased (MLE-12 cells [2]) [µM] | EC50 (MLE-12; MLE12, MLE-12, RSL3 1 μM) [µM] | EC50 (PC-12; Rattus norvegicus) [µM] | EC50 (NIH/3T3; Mus musculus, NIH3T3, NIH/3T3, RSL3 3 μM) [µM] | EC50 (NRK-49F; Rattus norvegicus) [µM] | EC50 (ARPE-19; Homo sapiens) [µM] | EC50 (H9C2; Rattus norvegicus) [µM] | EC50 (HK-2; Homo sapiens) [µM] | EC50 (HT-22; Mus musculus) [µM]
1 | CCOC(=O)c1ccc(NC2CCCCC2)c(N)c1 [Fer-1, ferrostatin-1, reference compound] | 0.1 | 0.03 to 0.1 | 0.03 to 0.1 | 0.03 to 0.1 | 0.03 to 0.1 | 0.03 to 0.1 | 0.03 to 0.1 | 0.03 to 0.1 | 0.03 to 0.1 | up to 18 hours | ≥ 21 | 0.1 |  |  |  |  |  |  |  | 
2 | O=S1(=O)CCN(Cc2cc(NC3CCOCC3)c3[nH]c(-c4ccccc4)cc3c2)CC1 [Example 1, 5-[(1,1-dioxido-4-thiomorpholinyl)methyl]-2-phenyl-N-(tetrahydro-2H-pyran-4-yl)-1H-indole-7-amine] | 0.01 |  |  |  |  |  |  |  |  | up to 24 hours |  | 0.1 | ≤ 0.03 | 0.03 to 0.1 | 0.03 to 0.1 | ≤ 0.03 | ≤ 0.03 | 0.03 to 0.1 | ≤ 0.03 | ≤ 0.03

Reference: patent US20240269145A1, “USE OF INDOLE COMPOUND AS INHIBITORS OF FERROPTOSIS” (MITOIMMUNE THERAPEUTICS INC., priority 2023, published 2024)
